Key:
Assay type in all cases: in vivo, rat
[1] = tested on: male Wistar rats; test: Example 44 single oral dose study: food consumption
Description: (§1) Sample 1 to 3 were each administered as a single oral dose to male Wistar rats. Two additional control groups received vehicle (distilled water or DMSO). Orally administered fenfluramine (7.5 mg/kg) was included as a reference standard.
(§2) Fifty-five male Wistar rats were used for the study.
(§3) Bodyweights, food consumption (food hopper weight) and water consumption (bottle weight) were recorded daily at the same time each day from the day of arrival until the termination of the study.
(§4) On Day 1, the rats received a single oral (gavage) dose according to the following table:
(§5) Groups 1–8 were dosed using a constant dose volume of 10 ml/kg and groups 9–12 were dosed using a dose volume of 1 ml/kg.
(§6) Food and water consumption were also measured at […] after dosing on Day 1.
(§7) The post-dose food and water consumption measurements and bodyweights at each time-point for the P57-treated animals were compared with those for the relevant, similarly-treated vehicle control group using analysis of variance followed by Williams' test for comparisons with controls.
(§8) The data for the fenfluramine-treated animals was compared with that for the vehicle-treated control group using Student's t test.

[2] = tested on: male Wistar rats; test: Example 44 single oral dose study: water consumption
Description: as §1, §2, §3, §4, §5, §6, §7, §8

[3] = Example 44 single oral dose study: bodyweight
Description: as §1, §2, §3, §4, §5, §7, §8

[4] = tested on: male Wistar rats; test: Example 44 single oral dose study: liver histopathology
Excerpt: Following the measurements of Day 8, the animals were killed by carbon dioxide asphyxiation, and the livers excised and placed in 10% buffered formalin, prior to histology.
Paraffin wax sections of each liver were taken at 4–5 μm and stained with haematoxylin and eosin. Additional sections were cut on a cryostat at 12 μm and stained for fat with Oil Red O (ORO).
Histological examination was restricted to the liver.

[5] = pre-dose data, before treatment, table rows = later dose groups
[6] = 7.5 mg/kg single oral dose on Day 1
[7] = Group 11, 7.5 mg/kg, 3 examined

CCNC(C)Cc1cccc(C(F)(F)F)c1 (centres unmarked) [Fenfluramine, reference compound]
Group mean food consumption (g ± sd) between Days: 1–2 ([1]; 7.5 mg/kg single oral dose): 22.4 ± 3.19 g
Group mean food consumption (g ± sd) between Days: 2–3 ([1]; 7.5 mg/kg single oral dose): 31.9 ± 0.84 g
Group mean food consumption (g ± sd) between Days: 3–4 ([1]; 7.5 mg/kg single oral dose): 32.7 ± 2.50 g
Group mean food consumption (g ± sd) between Days: 4–5 ([1]; 7.5 mg/kg single oral dose): 33.0 ± 2.55 g
Group mean food consumption (g ± sd) between Days: 5–6 ([1]; 7.5 mg/kg single oral dose): 30.4 ± 0.23 g
Group mean food consumption (g ± sd) between Days: 6–7 ([1]; 7.5 mg/kg single oral dose): 32.7 ± 1.90 g
Group mean food consumption (g ± sd) between Days: 7–8 ([1]; 7.5 mg/kg single oral dose): 32.4 ± 1.60 g
food consumption at 6 and 24 hours post-dose versus vehicle-treated control group ([1]; 7.5 mg/kg single oral dose): statistically significant reductions in food consumption
Group mean food consumption (g ± sd) between Days: −2–−1 [1, 5]: 29.7 ± 2.84 g
Group mean food consumption (g ± sd) between Days: −3–−2 [1, 5]: 30.8 ± 0.54 g
Group mean food consumption (g ± sd) between Days: −4–−3 [1, 5]: 27.0 ± 1.53 g
Group mean food consumption (g ± sd) between Days: −5–−4 [1, 5]: 25.3 ± 4.03 g
Group mean food consumption (g ± sd) between Days: −6–−5 [1, 5]: 29.1 ± 0.66 g
Group mean water consumption (g ± sd) between Days: 1–2 ([2]; 7.5 mg/kg single oral dose): 34.1 ± 3.60 g
Group mean water consumption (g ± sd) between Days: 2–3 ([2]; 7.5 mg/kg single oral dose): 37.2 ± 1.48 g
Group mean water consumption (g ± sd) between Days: 3–4 ([2]; 7.5 mg/kg single oral dose): 36.7 ± 3.92 g
Group mean water consumption (g ± sd) between Days: 4–5 ([2]; 7.5 mg/kg single oral dose): 33.8 ± 2.89 g
Group mean water consumption (g ± sd) between Days: 5–6 ([2]; 7.5 mg/kg single oral dose): 33.7 ± 5.43 g
Group mean water consumption (g ± sd) between Days: 6–7 ([2]; 7.5 mg/kg single oral dose): 32.1 ± 1.93 g
Group mean water consumption (g ± sd) between Days: 7–8 ([2]; 7.5 mg/kg single oral dose): 33.6 ± 2.50 g
effects on water consumption ([2]; 7.5 mg/kg single oral dose): No statistically significant effects
Group mean water consumption (g ± sd) between Days: −2–−1 [2, 5]: 31.6 ± 2.80 g
Group mean water consumption (g ± sd) between Days: −3–−2 [2, 5]: 30.9 ± 2.12 g
Group mean water consumption (g ± sd) between Days: −4–−3 [2, 5]: 34.7 ± 3.73 g
Group mean water consumption (g ± sd) between Days: −5–−4 [2, 5]: 35.5 ± 7.49 g
Group mean water consumption (g ± sd) between Days: −6–−5 [2, 5]: 47.0 ± 5.3 g
effects on bodyweight ([3]; 7.5 mg/kg single oral dose): No statistically significant effects
Group mean bodyweight (g ± sd) on Day: 2 [3, 6]: 190.3 ± 10.97 g
Group mean bodyweight (g ± sd) on Day: 3 [3, 6]: 197.7 ± 7.37 g
Group mean bodyweight (g ± sd) on Day: 4 [3, 6]: 207.7 ± 7.23 g
Group mean bodyweight (g ± sd) on Day: 5 [3, 6]: 217.7 ± 10.69 g
Group mean bodyweight (g ± sd) on Day: 6 [3, 6]: 224.3 ± 10.12 g
Group mean bodyweight (g ± sd) on Day: 7 [3, 6]: 234.3 ± 12.70 g
Group mean bodyweight (g ± sd) on Day: 8 [3, 6]: 243.3 ± 9.24 g
Group mean bodyweight (g ± sd) on Day: Pre-dose (1) ([3]; Day 1 before dosing): 190.3 ± 9.71 g
Group mean bodyweight (g ± sd) on Day: −1 [3, 5]: 182.8 ± 10.21 g
Group mean bodyweight (g ± sd) on Day: −2 [3, 5]: 170.0 ± 9.15 g
Group mean bodyweight (g ± sd) on Day: −3 [3, 5]: 160.0 ± 9.82 g
Group mean bodyweight (g ± sd) on Day: −4 [3, 5]: 152.7 ± 9.09 g
Group mean bodyweight (g ± sd) on Day: −5 [3, 5]: 133.2 ± 9.21 g
Liver (ORO stain): Hepatocyte fat - centrilobular(Total) [4, 7]: 1
Liver (ORO stain): Hepatocyte fat - centrilobular, Minimal [4, 7]: 1
Liver (ORO stain): No abnormalities detected [4, 7]: 2
Liver: Hepatocyte necrosis - focal (Total) [4, 7]: 0
Liver: Hepatocyte necrosis - focal, Minimal [4, 7]: 0
Liver: No abnormalities detected (incidence) [4, 7]: 0
Liver: Parenchymal inflammatory cell foci (Total) [4, 7]: 0
Liver: Parenchymal inflammatory cell foci, Minimal [4, 7]: 0
Liver: Portal leucocytes (Total) [4, 7]: 0
Liver: Portal leucocytes, Minimal [4, 7]: 0
Liver: Portal lymphoid infiltration (Total) [4, 7]: 3
Liver: Portal lymphoid infiltration, Minimal [4, 7]: 3
histological examination of the liver ([4]; all doses tested, single oral dose, livers taken Day 8): No treatment-related changes were detected
